Tests used:
Assay type in all cases: in vivo
Septoria tritici = assay: Test A: wheat leaf blotch, preventive spray on wheat seedlings; conditions: 100 = 100% disease control, 0 = no control relative to controls
Method in brief: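 Preventive test: seedlings sprayed to run-off one day before Septoria tritici spore inoculation, with ppm doses in acetone/water containing 250 ppm PEG400. After 48 h at 24 °C in saturated air and 17 days at 20 °C, plants were scored 0–100 for disease control versus untreated controls.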

[1] = system: Puccinia recondita f. sp. tritici; assay: Test B: wheat leaf rust, preventive spray on wheat seedlings; conditions: 100 = 100% disease control, 0 = no control relative to controls
Method in brief: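 Wheat seedlings got a run-off spray (ppm, acetone/water 50/50, 250 ppm PEG400) and one day later a spore inoculum. After 24 h at 20° C. in saturated air and 7 days at 20° C., disease was scored as % control relative to controls (100 = full control).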

[2] = system: Blumeria graminis f. sp. tritici; assay: Test C: wheat powdery mildew, preventive spray on wheat seedlings; conditions: rated after 8 days, 100 = 100% disease control, 0 = no control
Method in brief: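 Wheat seedlings got a run-off spray of test suspension (ppm in acetone/water 50/50, 250 ppm PEG400, acetone 3% of volume), then spore-dust inoculation with wheat powdery mildew one day later. After 8 days' growth-chamber incubation at 20° C, disease control scored visually on a 0–100 scale versus untreated controls.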

Phakopsora pachyrhizi = assay: Test D: Asian soybean rust, preventive spray on soybean seedlings; conditions: 100 = 100% disease control, 0 = no control
Method in brief: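 Soybean seedlings sprayed to run-off with compound suspension (ppm, in 50/50 acetone/water with 250 ppm PEG400), inoculated next day with P. pachyrhizi spores, held 24 h saturated at 22°C then 8 days at 22°C. Visual rating 0-100% disease control relative to controls.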

Botrytis cinerea = assay: Test E: tomato Botrytis, preventive spray on tomato seedlings; conditions: 100 = 100% disease control, 0 = no control
Method in brief: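 Preventive test: spore inoculation one day after run-off spraying of compound suspension (3% acetone, acetone/water 50/50, 250 ppm PEG400). Incubation 20 °C saturated humidity for 48 h, followed by 3 days at 24 °C growth chamber; disease control scored visually, 100 = full control.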

Alternaria solani = assay: Test F: tomato early blight, preventive spray on tomato seedlings; conditions: 100 = 100% disease control, 0 = no control
Method in brief: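 Preventive test: one day after seedlings were sprayed to run-off with ppm-level suspensions (acetone/water 50/50, 250 ppm PEG400), A. solani spore inoculation followed. Incubation was 48 h at 27° C in saturated air plus 3 days at 20° C; disease control was scored visually versus controls (100 = full control).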

Cc1cc(F)c(Nc2c(-c3ccc(F)cc3Cl)c(C)nn2C)c([N+](=O)[O-])c1 [Compound 93, 4-(2-chloro-4-fluorophenyl)-N-(2-fluoro-4-methyl-6-nitrophenyl)-1,3-dimethyl-1H-pyrazol-5-amine]
pest or weed control at 10 ppm (Septoria tritici; Zymoseptoria tritici, 10 ppm, read-out: Test A disease control rating (wheat leaf blotch)): 99% | pest or weed control at 50 ppm (Septoria tritici; Zymoseptoria tritici, 50 ppm, read-out: Test A disease control rating (wheat leaf blotch)): 100% | pest or weed control at 10 ppm ([1]; 10 ppm, read-out: Test B disease control rating (wheat leaf rust)): 100% | pest or weed control at 50 ppm ([1]; 50 ppm, read-out: Test B disease control rating (wheat leaf rust)): 100% | pest or weed control at 10 ppm ([2]; Blumeria graminis, 192 h, 10 ppm, read-out: Test C disease control rating (wheat powdery mildew)): 97% | pest or weed control at 50 ppm ([2]; Blumeria graminis, 192 h, 50 ppm, read-out: Test C disease control rating (wheat powdery mildew)): 99% | pest or weed control at 10 ppm (Phakopsora pachyrhizi; Phakopsora pachyrhizi, 10 ppm, read-out: Test D disease control rating (Asian soybean rust)): 87% | pest or weed control at 50 ppm (Phakopsora pachyrhizi; Phakopsora pachyrhizi, 50 ppm, read-out: Test D disease control rating (Asian soybean rust)): 100% | pest or weed control at 10 ppm (Botrytis cinerea; Botrytis cinerea, 10 ppm, read-out: Test E disease control rating (tomato Botrytis)): 99% | pest or weed control at 50 ppm (Botrytis cinerea; Botrytis cinerea, 50 ppm, read-out: Test E disease control rating (tomato Botrytis)): 100% | pest or weed control at 10 ppm (Alternaria solani; Alternaria solani, 10 ppm, read-out: Test F disease control rating (tomato early blight)): 99% | pest or weed control at 50 ppm (Alternaria solani; Alternaria solani, 50 ppm, read-out: Test F disease control rating (tomato early blight)): 99%

COc1cc(F)c(-c2c(C)nn(C)c2Nc2c(C)cccc2[N+](=O)[O-])c(F)c1 [Compound 162]
Test A disease control rating (wheat leaf blotch) (Septoria tritici; 50 ppm): 100% | Test B disease control rating (wheat leaf rust) ([1]; 50 ppm): 100% | Test C disease control rating (wheat powdery mildew) ([2]; 50 ppm): 99% | Test D disease control rating (Asian soybean rust) (Phakopsora pachyrhizi; 50 ppm): 77% | Test E disease control rating (tomato Botrytis) (Botrytis cinerea; 50 ppm): 97% | Test F disease control rating (tomato early blight) (Alternaria solani; 50 ppm): 98%

Cc1nn(C)c(Nc2c(Cl)cc(Br)cc2[N+](=O)[O-])c1-c1ccc(F)cc1F [Compound 55]
Test A disease control rating (wheat leaf blotch) (Septoria tritici; 50 ppm): 100% | Test B disease control rating (wheat leaf rust) ([1]; 50 ppm): 99% | Test C disease control rating (wheat powdery mildew) ([2]; 50 ppm): 90% | Test D disease control rating (Asian soybean rust) (Phakopsora pachyrhizi; 50 ppm): 0% | Test E disease control rating (tomato Botrytis) (Botrytis cinerea; 50 ppm): 34% | Test F disease control rating (tomato early blight) (Alternaria solani; 50 ppm): 0%

Cc1nn(C)c(Nc2ccc(F)cc2[N+](=O)[O-])c1-c1c(F)cccc1Cl [Compound 44]
Test A disease control rating (wheat leaf blotch) (Septoria tritici; 50 ppm): 100% | Test B disease control rating (wheat leaf rust) ([1]; 50 ppm): 99% | Test C disease control rating (wheat powdery mildew) ([2]; 50 ppm): 98% | Test D disease control rating (Asian soybean rust) (Phakopsora pachyrhizi; 50 ppm): 0% | Test E disease control rating (tomato Botrytis) (Botrytis cinerea; 50 ppm): 95% | Test F disease control rating (tomato early blight) (Alternaria solani; 50 ppm): 46%

COc1cc(F)c(-c2c(C)nn(C)c2Nc2ccccc2[N+](=O)[O-])c(F)c1 [Compound 147]
Test A disease control rating (wheat leaf blotch) (Septoria tritici; 50 ppm): 96% | Test B disease control rating (wheat leaf rust) ([1]; 50 ppm): 86% | Test C disease control rating (wheat powdery mildew) ([2]; 50 ppm): 97% | Test D disease control rating (Asian soybean rust) (Phakopsora pachyrhizi; 50 ppm): 0% | Test E disease control rating (tomato Botrytis) (Botrytis cinerea; 50 ppm): 100% | Test F disease control rating (tomato early blight) (Alternaria solani; 50 ppm): 99%

Cc1nn(C)c(Nc2c(Cl)cccc2[N+](=O)[O-])c1-c1c(F)cc(F)cc1Cl [Compound 152]
Test A disease control rating (wheat leaf blotch) (Septoria tritici; 50 ppm): 99% | Test B disease control rating (wheat leaf rust) ([1]; 50 ppm): 100% | Test C disease control rating (wheat powdery mildew) ([2]; 50 ppm): 98% | Test D disease control rating (Asian soybean rust) (Phakopsora pachyrhizi; 50 ppm): 91% | Test E disease control rating (tomato Botrytis) (Botrytis cinerea; 50 ppm): 99% | Test F disease control rating (tomato early blight) (Alternaria solani; 50 ppm): 92%

Cc1nn(C)c(Nc2c(F)cc(F)cc2[N+](=O)[O-])c1-c1ccc(Cl)cc1F [Compound 13]
Test A disease control rating (wheat leaf blotch) (Septoria tritici; 50 ppm): 100% | Test B disease control rating (wheat leaf rust) ([1]; 50 ppm): 99% | Test C disease control rating (wheat powdery mildew) ([2]; 50 ppm): 97% | Test D disease control rating (Asian soybean rust) (Phakopsora pachyrhizi; 50 ppm): 19% | Test E disease control rating (tomato Botrytis) (Botrytis cinerea; 50 ppm): 68% | Test F disease control rating (tomato early blight) (Alternaria solani; 50 ppm): 89%

Cc1nn(C)c(Nc2c(F)cccc2[N+](=O)[O-])c1-c1c(Cl)cccc1Cl [Compound 53]
Test A disease control rating (wheat leaf blotch) (Septoria tritici; 50 ppm): 100% | Test B disease control rating (wheat leaf rust) ([1]; 50 ppm): 100% | Test C disease control rating (wheat powdery mildew) ([2]; 50 ppm): 98% | Test D disease control rating (Asian soybean rust) (Phakopsora pachyrhizi; 50 ppm): 0% | Test E disease control rating (tomato Botrytis) (Botrytis cinerea; 50 ppm): 98% | Test F disease control rating (tomato early blight) (Alternaria solani; 50 ppm): 98%

From patent publication US12398107B2, “Fungicidal nitroanilino substituted pyrazoles” (FMC Corporation, priority 2018, dated 2025)
